Assay results reported in article PMC10751545 (Science (New York, N.Y.), 2023).
Like-named read-outs stand apart in the source and are kept apart here. Each block holds one compound with its values, some of them ahead of it.

Experiments:
[1] = molecular target: T1, GPR158 (Homo sapiens, UniProt Q5T848)
T1 sequence (Q5T848 24-1215): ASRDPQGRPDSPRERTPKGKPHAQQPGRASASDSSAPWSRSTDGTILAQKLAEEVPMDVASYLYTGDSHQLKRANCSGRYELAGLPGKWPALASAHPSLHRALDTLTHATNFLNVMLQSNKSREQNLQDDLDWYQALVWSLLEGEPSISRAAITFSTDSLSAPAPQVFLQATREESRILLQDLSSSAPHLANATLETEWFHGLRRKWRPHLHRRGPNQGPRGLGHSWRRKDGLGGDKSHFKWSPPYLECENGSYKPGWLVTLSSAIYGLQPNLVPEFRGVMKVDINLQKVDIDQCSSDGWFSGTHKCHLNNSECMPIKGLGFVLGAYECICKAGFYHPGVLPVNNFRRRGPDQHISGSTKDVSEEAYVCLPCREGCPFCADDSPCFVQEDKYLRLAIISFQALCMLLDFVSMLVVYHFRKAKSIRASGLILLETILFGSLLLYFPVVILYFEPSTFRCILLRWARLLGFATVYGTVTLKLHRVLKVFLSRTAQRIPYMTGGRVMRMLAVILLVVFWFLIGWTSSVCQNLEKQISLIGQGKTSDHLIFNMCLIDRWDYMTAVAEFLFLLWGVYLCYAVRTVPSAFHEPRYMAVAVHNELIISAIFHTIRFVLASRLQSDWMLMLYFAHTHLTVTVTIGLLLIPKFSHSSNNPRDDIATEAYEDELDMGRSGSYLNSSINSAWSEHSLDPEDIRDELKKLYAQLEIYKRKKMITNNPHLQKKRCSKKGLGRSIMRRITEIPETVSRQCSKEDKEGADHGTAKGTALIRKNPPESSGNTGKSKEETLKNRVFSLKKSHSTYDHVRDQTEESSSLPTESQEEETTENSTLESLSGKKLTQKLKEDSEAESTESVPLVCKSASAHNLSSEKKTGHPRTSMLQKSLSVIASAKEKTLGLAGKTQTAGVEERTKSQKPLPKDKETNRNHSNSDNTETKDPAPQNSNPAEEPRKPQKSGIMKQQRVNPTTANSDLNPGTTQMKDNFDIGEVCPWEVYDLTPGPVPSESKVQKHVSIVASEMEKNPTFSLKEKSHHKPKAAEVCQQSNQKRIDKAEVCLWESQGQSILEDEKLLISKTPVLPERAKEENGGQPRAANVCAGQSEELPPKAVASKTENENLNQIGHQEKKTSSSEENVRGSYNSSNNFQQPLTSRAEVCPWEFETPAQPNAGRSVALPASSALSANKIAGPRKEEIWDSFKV

[2] = tested on: GPR158 R173A, E271A, and Y269A mutants
[3] = molecular target: T1, GPR158; test: BRET-based cAMP biosensor screen in HEK293 cells expressing GPR158; type: cell-based; conditions: for cAMP change in cells expressing GPR158 relative to non-transfected cells: BRET cAMP biosensor
[4] = molecular target: T1, GPR158; test: Binding competition, displacement of [3H]-glycine bound to GPR158
[5] = molecular target: T1, GPR158; remark: listed apart in the source
[6] = molecular target: T1, GPR158; test: G protein activation by GPR158; type: cell-based; conditions: any G proteins tested
[7] = tested on: layer II-III neurons in the prelimbic cortex; test: Slice electrophysiology, intrinsic excitability of cortical neurons; type: cell-based, mice
[8] = molecular target: T2, GPR158-RGS7/Gβ5 complex (Homo sapiens, UniProt Q5T848); test: BRET-based GAP assay; type: cell-based
T2 sequence (Q5T848 24-1215): T1 sequence (Q5T848 24-1215)
T2 sequence (P49802 1-495 partner): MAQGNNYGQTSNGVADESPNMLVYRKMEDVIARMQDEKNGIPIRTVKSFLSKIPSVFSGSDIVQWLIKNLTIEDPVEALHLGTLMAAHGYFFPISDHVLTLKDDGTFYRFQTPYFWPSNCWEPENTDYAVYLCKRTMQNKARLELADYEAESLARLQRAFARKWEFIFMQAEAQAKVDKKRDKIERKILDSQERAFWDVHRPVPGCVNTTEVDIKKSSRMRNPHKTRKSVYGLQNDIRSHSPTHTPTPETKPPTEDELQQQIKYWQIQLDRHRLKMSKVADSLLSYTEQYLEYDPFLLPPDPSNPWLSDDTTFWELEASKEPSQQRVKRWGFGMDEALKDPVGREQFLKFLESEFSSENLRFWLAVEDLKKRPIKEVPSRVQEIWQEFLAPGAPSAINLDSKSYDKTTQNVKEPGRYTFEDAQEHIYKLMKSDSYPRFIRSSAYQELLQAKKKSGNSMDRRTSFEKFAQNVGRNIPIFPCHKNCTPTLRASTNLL
T2 sequence (O14775 1-395 partner): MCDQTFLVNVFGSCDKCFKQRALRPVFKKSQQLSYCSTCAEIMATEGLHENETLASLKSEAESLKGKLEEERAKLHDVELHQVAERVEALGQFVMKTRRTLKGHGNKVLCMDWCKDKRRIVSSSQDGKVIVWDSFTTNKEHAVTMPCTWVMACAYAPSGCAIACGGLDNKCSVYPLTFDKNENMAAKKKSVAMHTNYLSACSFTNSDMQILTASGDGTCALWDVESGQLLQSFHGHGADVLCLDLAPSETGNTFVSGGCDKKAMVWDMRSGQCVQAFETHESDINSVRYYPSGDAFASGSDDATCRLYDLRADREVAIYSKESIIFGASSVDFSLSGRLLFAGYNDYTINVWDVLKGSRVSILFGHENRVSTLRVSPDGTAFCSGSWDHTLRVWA

[9] = molecular target: T1, GPR158; remark: listed apart in the source

SMILES: NCC(=O)O [[^3H]-glycine, reference compound]
binding to GPR158-expressing cells ([1]; HEK293 cells expressing GPR158, across concentrations): significant binding
[3H]-glycine binding to mutants [2]: near complete loss

SMILES: NCC(=O)O [glycine]
Kd ([1]; read-out: Kd of GPR158 for glycine, Scatchard analysis, membranes containing GPR158): ~3 µM
cAMP change in cells expressing GPR158 relative to non-transfected cells [3]: significant decrease in cAMP
IC50 ([4]; read-out: IC50, displacement of [3H]-glycine bound to GPR158): ~3 µM
cAMP change in cells lacking GPR158 ([5]; U87 glioblastoma cells lacking GPR158, glycine 100μM): No glycine-induced changes in cAMP
cAMP change in cells expressing GPR158 ([5]; U87 glioblastoma cells, 10μM forskolin, glycine 100μM): cAMP decrease
activation of G proteins by GPR158 [6]: no significant activation
resting membrane potential ([7]; layer II-III neurons): without changes
amount of current necessary to elicit the first action potential (rheobase) ([7]; layer II-III neurons, glycine 1mM): decreasing
number of action potentials ([7]; layer II-III neurons, glycine 1mM, synaptic blockade): significantly increased
intrinsic excitability of layer V neurons ([7]; layer V neurons, which do not express GPR158): did not produce any changes
excitability of layer II-III neurons in Gpr158 KO mice ([7]; prefrontal cortex, Gpr158 KO mice, glycine 1mM): failed to alter excitability
effect on Gαo deactivation, GPR158 co-expressed with RGS7/Gβ5 ([8]; 100μM): significantly decelerated Gαo deactivation
effect on baseline or RGS7/Gβ5-assisted Gαo deactivation without GPR158 ([8]; cells without GPR158, 100μM): no effect
β-arrestin recruitment to GPR158 [9]: no significant response

effect on GPR158-mediated suppression of cAMP compared directly with glycine [3]: weaker than the effect of glycine
cAMP change in cells expressing GPR158 relative to non-transfected cells [3]: significant decrease in cAMP levels
IC50 [4]: ~6 µM
affinity relative to glycine ([4]; competition with [3H]-glycine): two-fold lower affinity
activation of G proteins by GPR158 [6]: no significant activation
IC50 [8]: ~6 µM
SMILES: NCCS(=O)(=O)O [taurine]
excitability (neuronal firing) of layer II-III neurons ([7]; taurine): small effects on neuronal firing
